Read-outs that look alike come from different tables or passages of the source.
Key:
[1] = Biodegradability (OECD 306)
Algal = Algal toxicity; conditions: in vivo
Fish = Fish toxicity; conditions: in vivo

Compound	Biodegradability (OECD 306) ([1]; OECD 306)	Algal toxicity (EC50) (Algal)	Fish toxicity (LC50) (Fish)	Biodegradability (OECD 306) [1]
S=c1[nH]c2ccccc2s1 [Mercaptobenzothiazole]	<20%	<1 µg/mL	<10 µg/mL	
O=C(O)c1ccccc1SSc1ccccc1C(=O)O [Dithiodi(benzoic acid), o-dithiodibenzoic acid]	>30%	>100 µg/mL	>100 µg/mL	
N-Aminoethyloleyl-imidazoline		<1 µg/mL	<10 µg/mL	>60%

Reference: patent publication US8759264B2, “Water-based hydraulic fluids comprising dithio-di(aryl carbolic acids)” (Clarient Finance (BVI) Limited, priority 2008, dated 2014)
